Measurements as given in patent US8470804B2, “11a, 12-derivatives of tetracycline compounds” (Paratek Pharmaceuticals, Inc., priority 2005, dated 2013).

Experiments:
common bacteria = test: In vitro minimum inhibitory concentration (MIC) assay; assay type: cell-based, E. coli, S. aureus, Enterococcus sp.; details: broth microdilution in CAMHB, 35° C., approximately 18 hours
Description: The following assay was used to determine the efficacy of tetracycline compounds against common bacteria. 2 mg of each compound were dissolved in 100 μl of DMSO. […] The tetracycline compound solutions were diluted to 50 μl, volumes, with a test compound concentration of 0.098 μg/ml. Optical density (OD) determinations were made from fresh log-phase broth cultures of the test strains. Dilutions were made to achieve a final cell density of 1×10^6 CFU/ml. At OD=1, cell densities for different genera were approximately: [table] 50 μl of the cell suspensions were added to each well of microtiter plates. The final cell density should be approximately 5×10^5 CFU/ml. These plates are incubated at 35° C. in an ambient air incubator for approximately 18 hours. The plates are read with a microplate reader and are visually inspected when necessary. The MIC was defined as the lowest concentration of the tetracycline compound that inhibits growth.

EAE induced mice = test: In vivo experimental autoimmune encephalomyelitis (EAE) murine model; set-up: species or system C57BL/6 female mice; details: IP injections 50 mg/kg each day from day 10 (onset of disease); minocycline control at same dose
Description: In this example, a mouse model was used to determine the ability of the tetracycline compounds to treat demyelination related diseases. Other models which can be used are described in Brundula V. et al. Brain 2002 June; 125 (Pt 6): 1297-308 and Popovic N. et al. Ann Neural. 2002 February; 51(2):215-23.
To induce EAE, 6 week old C57BL/6 female mice were injected subcutaneously with 200 ug of myelin oligodendrocyte glycoprotein peptide (MOG 35-55) emulsified in 200 μL of complete Freund's adjuvant containing an additional 4 mg/mL of heat killed M. tuberculosis. Mice were additionally injected intravenously (tail vein) with 150 ng of lyophilized pertussis toxin resuspended in 150 μL PBS at time 0 and again 48 hours later. In this model, the mice developed progressive posterior to anterior advancing paralysis with symptoms first appearing at 10-12 days and progressing to severe paralysis by approximately 21 days. Severity of EAE was scored daily according to the following criteria: 0, healthy; 1, limp tail; 2, partial paralysis of one or two hind limbs; 3, complete paralysis of the hind limbs; 4, complete hind limb paralysis and forelimb paraparesis; 5, moribund. All test experiments included control groups of EAE induced mice treated with vehicle only or treated with minocycline, with 10 mice per group. […]

| Structure (SMILES) | antibacterial activity (MIC) (common bacteria) | activity in EAE model (severity of EAE scored daily 0-5) compared with minocycline (EAE induced mice) |
| --- | --- | --- |
| C[C@H]1c2ccc(N)c(O)c2C(=O)C2=C[C@]3(O)C(=O)C(C(N)=O)=C(O)[C@@H](N(C)C)[C@@H]3[C@@H](O)[C@@H]21 [9-Amino-12-dehydrodoxycline, (4S,4aR,5S,5aR,6R,12aR)-9-Amino-4-dimethylamino-3,5,10,12a-tetrahydroxy-6-methyl-1,11-dioxo-1,4,4a,5,5a,6,11,12a-octahydro-naphthacene-2-carboxylic acid amide] | low antibacterial activity |  |
| C[C@H]1c2ccc(N(C)C)c(O)c2C(=O)C2=C[C@]3(O)C(=O)C(C(N)=O)=C(O)[C@@H](N(C)C)[C@@H]3[C@@H](O)[C@@H]21 [9-bis-dimethylamino-12-dehydrodoxycline, (4S,4aR,5S,5aR,6R,12aR)-4,9-Bis-dimethylamino-3,5,10,12a-tetrahydroxy-6-methyl-1,11-dioxo-1,4,4a,5,5a,6,11,12a-octahydro-naphthacene-2-carboxylic acid amide] | low antibacterial activity |  |
| C[C@H]1c2cccc(O)c2C(=O)C2=C[C@]3(O)C(=O)C(C(N)=O)=C(O)[C@@H](N(C)C)[C@@H]3[C@@H](O)[C@@H]21 [12-dehydrodoxycycline, (4S,4aR,5S,5aR,6R,12aR)-4-Dimethylamino-3,5,10,12a-tetrahydroxy-6-methyl-1,11-dioxo-1,4,4a,5,5a,6,11,12a-octahydro-naphthacene-2-carboxylic acid amide] | low antibacterial activity | activity similar to or better than minocycline |
| CNC1C2C(=O)c3c(O)cccc3[C@H](C)[C@H]2[C@H](O)[C@H]2[C@H](N(C)C)C(O)=C(C(N)=O)C(=O)[C@@]12O (stereo partly drawn) [12-methylamino-12-dehydrodoxycycline, (4S,4aR,5S,5aR,6R,12aS)-4-Dimethylamino-3,5,10,12a-tetrahydroxy-6-methyl-12-methylamino-1,11-dioxo-1,4,4a,5,5a,6,11,11a,12,12a-decahydro-naphthacene-2-carboxylic acid amide] |  | activity similar to or better than minocycline |
